This experiment deals with RS4; 11 with G101V mutation. Nature of the experiment: In vitro anti-proliferation assay (ATPlite luminescence) in BCL-2-dependent ALL cell line RS4;11 with G101V mutation. Type of experiment: cell-based. Particulars: read-out: RS411-G101V IC50. The gist of the method:
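RS4;11 G101V cells at about 1×10^4 per well were exposed to a range of compound concentrations for about 72 h in medium with 10% FBS. Cellular ATP was measured by ATPlite luminescence after lysis, and IC50 was derived from the dose-response.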

The mark [1] stands for this setting: cellular anti-proliferative IC50, about 72 hours, medium with 10% FBS, ATPlite.

Read-outs that look alike come from different tables or passages of the source.

The source of these data is patent US20250114374A1, “BCL-2 INHIBITORS” (Newave Pharmaceutical Inc., priority 2021, published 2025).

One may read the IC50 as the concentration at which inhibition is half-maximal. Regarding `COc1cc(CN2CCN(C3CC4(CCN(c5ccc(C(=O)NS(=O)(=O)c6cc7c(c([N+](=O)[O-])c6)N[C@H](C6CCOCC6)CO7)c(N6c7cc8cc[nH]c8nc7O[C@H]7COCC[C@@H]76)c5)CC4)C3)[C@H](c3ccccc3C(C)C)C2)cnc1N1CCOC[C@@H]1C` [Example 172, 2-[(3R,8S)-2,5-dioxa-9,15,17-triazatetracyclo[8.7.0.0^{3,8}.0^{12,16}]heptadeca-1(10),11,13,16-tetraen-9-yl]-4-{2-[(2R)-2-(2-isopropylphenyl)-4-({5-methoxy-6-[(3S)-3-methylmorpholin-4-yl]pyridin-3-yl}methyl)piperazin-1-yl]-7-azaspiro[3.5]nonan-7-yl}-N-[(3R)-5-nitro-3-(oxan-4-yl)-3,4-dihydro-2H-1,4-benzoxazin-7-ylsulfonyl]benzamide], the IC50 under setting [1] is 0.0014 µM.
As for `COc1cc(CN2CCN(C3CC4(CCN(c5ccc(C(=O)NS(=O)(=O)c6cc7c(c([N+](=O)[O-])c6)N[C@H](C6CCOCC6)CO7)c(N6c7cc8cc[nH]c8nc7O[C@H]7COCC[C@@H]76)c5)CC4)C3)[C@H](c3ccccc3C(C)C)C2)cnc1OC` [Example 173, 4-{2-[(2R)-4-[(5,6-dimethoxypyridin-3-yl)methyl]-2-(2-isopropylphenyl)piperazin-1-yl]-7-azaspiro[3.5]nonan-7-yl}-2-[(3R,8S)-2,5-dioxa-9,15,17-triazatetracyclo[8.7.0.0^{3,8}.0^{12,16}]heptadeca-1(10),11,13,16-tetraen-9-yl]-N-[(3R)-5-nitro-3-(oxan-4-yl)-3,4-dihydro-2H-1,4-benzoxazin-7-ylsulfonyl]benzamide], the IC50 under setting [1] is 0.001 µM.
Regarding `CC(C)Oc1ccccc1[C@@H]1CN([C@@H]2CCCOC2)CCN1C1CC2(CCN(c3ccc(C(=O)NS(=O)(=O)c4cc5c(c([N+](=O)[O-])c4)N[C@H](C4CCOCC4)CO5)c(N4c5cc6cc[nH]c6nc5O[C@H]5COCC[C@@H]54)c3)CC2)C1` [Example 174, 4-(2-((R)-2-(2-isopropoxyphenyl)-4-((R)-tetrahydro-2H-pyran-3-yl)piperazin-1-yl)-7-azaspiro[3.5]nonan-7-yl)-N-(((R)-5-nitro-3-(tetrahydro-2H-pyran-4-yl)-3,4-dihydro-2H-benzo[b][1,4]oxazin-7-yl)sulfonyl)-2-((5aS,9aR)-6,7,9,9a-tetrahydro-1H-pyrano[3,4-b]pyrrolo[3′,2′:5,6]pyrido[3,2-e][1,4]oxazin-5(5aH)-yl)benzamide], the IC50 (Homo sapiens, RS4-11, 72 h) turned out to be 0.0465 µM.
Take `CC(C)Oc1ccccc1[C@@H]1CN([C@H]2CCCOC2)CCN1C1CC2(CCN(c3ccc(C(=O)NS(=O)(=O)c4cc5c(c([N+](=O)[O-])c4)N[C@H](C4CCOCC4)CO5)c(N4c5cc6cc[nH]c6nc5O[C@H]5COCC[C@@H]54)c3)CC2)C1` [Example 175, 4-(2-((R)-2-(2-isopropoxyphenyl)-4-((S)-tetrahydro-2H-pyran-3-yl)piperazin-1-yl)-7-azaspiro[3.5]nonan-7-yl)-N-(((R)-5-nitro-3-(tetrahydro-2H-pyran-4-yl)-3,4-dihydro-2H-benzo[b][1,4]oxazin-7-yl)sulfonyl)-2-((5aS,9aR)-6,7,9,9a-tetrahydro-1H-pyrano[3,4-b]pyrrolo[3′,2′:5,6]pyrido[3,2-e][1,4]oxazin-5(5aH)-yl)benzamide]: the IC50 (Homo sapiens, RS4-11, 72 h) came to 0.0672 µM.
On the same count and under the same terms, as for `CC(C)Oc1ccccc1[C@@H]1CN(CC2CCOCC2)CCN1C1CC2(CCN(c3ccc(C(=O)NS(=O)(=O)c4cc5c(c([N+](=O)[O-])c4)N[C@H](C4CCOCC4)CO5)c(N4c5cc6cc[nH]c6nc5O[C@H]5COCC[C@@H]54)c3)CC2)C1` [Example 176, 4-(2-((R)-2-(2-isopropoxyphenyl)-4-((tetrahydro-2H-pyran-4-yl)methyl)piperazin-1-yl)-7-azaspiro[3.5]nonan-7-yl)-N-(((R)-5-nitro-3-(tetrahydro-2H-pyran-4-yl)-3,4-dihydro-2H-benzo[b][1,4]oxazin-7-yl)sulfonyl)-2-((5aS,9aR)-6,7,9,9a-tetrahydro-1H-pyrano[3,4-b]pyrrolo[3′,2′:5,6]pyrido[3,2-e][1,4]oxazin-5(5aH)-yl)benzamide], the figure is 0.0222 µM; as for `COc1cc(CN2CCN(C3CC4(CCN(c5ccc(C(=O)NS(=O)(=O)c6cc7c(c([N+](=O)[O-])c6)N[C@H](C6CCOCC6)CO7)c(N6c7cc8cc[nH]c8nc7O[C@H]7COCC[C@@H]76)c5)CC4)C3)[C@H](c3ccccc3OC(C)C)C2)cnc1OC` [Example 177, 4-(2-((R)-4-((5,6-dimethoxypyridin-3-yl)methyl)-2-(2-isopropoxyphenyl)piperazin-1-yl)-7-azaspiro[3.5]nonan-7-yl)-N-(((R)-5-nitro-3-(tetrahydro-2H-pyran-4-yl)-3,4-dihydro-2H-benzo[b][1,4]oxazin-7-yl)sulfonyl)-2-((5aS,9aR)-6,7,9,9a-tetrahydro-1H-pyrano[3,4-b]pyrrolo[3′,2′:5,6]pyrido[3,2-e][1,4]oxazin-5(5aH)-yl)benzamide], 0.004 µM.
Still for that read-out and setting: the value for `Cc1ccccc1[C@@H]1CN([C@@H]2CCCOC2)CCN1C1CC2(CCN(c3ccc(C(=O)NS(=O)(=O)c4cc5c(c([N+](=O)[O-])c4)N[C@H](C4CCOCC4)CO5)c(N4c5cc6cc[nH]c6nc5O[C@H]5COCC[C@@H]54)c3)CC2)C1` [Example 178, N—(((R)-5-nitro-3-(tetrahydro-2H-pyran-4-yl)-3,4-dihydro-2H-benzo[b][1,4]oxazin-7-yl)sulfonyl)-2-((5aS,9aR)-6,7,9,9a-tetrahydro-1H-pyrano[3,4-b]pyrrolo[3′,2′:5,6]pyrido[3,2-e][1,4]oxazin-5(5aH)-yl)-4-(2-((R)-4-((R)-tetrahydro-2H-pyran-3-yl)-2-(o-tolyl)piperazin-1-yl)-7-azaspiro[3.5]nonan-7-yl)benzamide] was 0.0409 µM; that for `Cc1ccccc1[C@@H]1CN([C@H]2CCCOC2)CCN1C1CC2(CCN(c3ccc(C(=O)NS(=O)(=O)c4cc5c(c([N+](=O)[O-])c4)N[C@H](C4CCOCC4)CO5)c(N4c5cc6cc[nH]c6nc5O[C@H]5COCC[C@@H]54)c3)CC2)C1` [Example 179, N—(((R)-5-nitro-3-(tetrahydro-2H-pyran-4-yl)-3,4-dihydro-2H-benzo[b][1,4]oxazin-7-yl)sulfonyl)-2-((5aS,9aR)-6,7,9,9a-tetrahydro-1H-pyrano[3,4-b]pyrrolo[3′,2′:5,6]pyrido[3,2-e][1,4]oxazin-5(5aH)-yl)-4-(2-((R)-4-((S)-tetrahydro-2H-pyran-3-yl)-2-(o-tolyl)piperazin-1-yl)-7-azaspiro[3.5]nonan-7-yl)benzamide] was 0.0312 µM.
As to `CC(C)c1ccccc1[C@@H]1CN(Cc2ccc(F)c(F)c2)CCN1C1CC2(CCN(c3ccc(C(=O)NS(=O)(=O)c4cc5c(c([N+](=O)[O-])c4)N[C@H](C4CCOCC4)CO5)c(N4c5cc6cc[nH]c6nc5O[C@H]5COCC[C@@H]54)c3)CC2)C1` [Example 180, 4-{2-[(2R)-4-[(3,4-difluorophenyl)methyl]-2-(2-isopropylphenyl)piperazin-1-yl]-7-azaspiro[3.5]nonan-7-yl}-2-[(3R,8S)-2,5-dioxa-9,15,17-triazatetracyclo[8.7.0.0^{3,8}.0^{12,16}]heptadeca-1(10),11,13,16-tetraen-9-yl]-N-[(3R)-5-nitro-3-(oxan-4-yl)-3,4-dihydro-2H-1,4-benzoxazin-7-ylsulfonyl]benzamide], the IC50 under setting [1] was found to be 0.0075 µM.
Consider `CC(C)Oc1ccccc1[C@@H]1CN(Cc2ccc(F)c(F)c2)CCN1C1CC2(CCN(c3ccc(C(=O)NS(=O)(=O)c4cc5c(c([N+](=O)[O-])c4)N[C@H](C4CCOCC4)CO5)c(N4c5cc6cc[nH]c6nc5O[C@H]5COCC[C@@H]54)c3)CC2)C1` [Example 181, 4-(2-((R)-4-(3,4-difluorobenzyl)-2-(2-isopropoxyphenyl)piperazin-1-yl)-7-azaspiro[3.5]nonan-7-yl)-N-(((R)-5-nitro-3-(tetrahydro-2H-pyran-4-yl)-3,4-dihydro-2H-benzo[b][1,4]oxazin-7-yl)sulfonyl)-2-((5aS,9aR)-6,7,9,9a-tetrahydro-1H-pyrano[3,4-b]pyrrolo[3′,2′:5,6]pyrido[3,2-e][1,4]oxazin-5(5aH)-yl)benzamide], for which the 50% inhibitory concentration (IC50) (Homo sapiens, RS4-11, 72 h) was 0.0096 µM.
The same measure, in the same setting: the value for `CC(C)Oc1ccccc1[C@@H]1CN(C2CCOCC2)CCN1C1CC2(CCN(c3ccc(C(=O)NS(=O)(=O)c4cc5c(c([N+](=O)[O-])c4)N[C@H](C4CCOCC4)CO5)c(N4c5cc6cc[nH]c6nc5O[C@H]5COCC[C@@H]54)c3)CC2)C1` [Example 182, 4-(2-((R)-2-(2-isopropoxyphenyl)-4-(tetrahydro-2H-pyran-4-yl)piperazin-1-yl)-7-azaspiro[3.5]nonan-7-yl)-N-(((R)-5-nitro-3-(tetrahydro-2H-pyran-4-yl)-3,4-dihydro-2H-benzo[b][1,4]oxazin-7-yl)sulfonyl)-2-((5aS,9aR)-6,7,9,9a-tetrahydro-1H-pyrano[3,4-b]pyrrolo[3′,2′:5,6]pyrido[3,2-e][1,4]oxazin-5(5aH)-yl)benzamide] was 0.0581 µM.
Same read-out and setting: the value for `Cc1ccccc1[C@@H]1CN(C2CCOCC2)CCN1C1CC2(CCN(c3ccc(C(=O)NS(=O)(=O)c4cc5c(c([N+](=O)[O-])c4)N[C@H](C4CCOCC4)CO5)c(N4c5cc6cc[nH]c6nc5O[C@H]5COCC[C@@H]54)c3)CC2)C1` [Example 183, N—(((R)-5-nitro-3-(tetrahydro-2H-pyran-4-yl)-3,4-dihydro-2H-benzo[b][1,4]oxazin-7-yl)sulfonyl)-2-((5aS,9aR)-6,7,9,9a-tetrahydro-1H-pyrano[3,4-b]pyrrolo[3′,2′:5,6]pyrido[3,2-e][1,4]oxazin-5(5aH)-yl)-4-(2-((R)-4-(tetrahydro-2H-pyran-4-yl)-2-(o-tolyl)piperazin-1-yl)-7-azaspiro[3.5]nonan-7-yl)benzamide] was 0.0733 µM.
